SMILES strings stand for the structures. Values after ≈ are worked out from the molar mass of the structure shown.

Assay in all cases: MIC, microdilution broth method (NCCLS)
Common to all, as to format: cell-based
A general note: In broth dilution the organism is exposed to a series of concentrations in liquid medium.

For one assay, the system named is E. coli OC2605. To be noted: Escherichia coli, Table 1, 6-Carbamoyl-3-Acyl Macrolide Derivatives, read-out: MIC Values, A: E. coli OC2605. Put shortly: (§1)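 NCCLS M7-A4 broth microdilution: two-fold drug dilutions in cation-adjusted Mueller-Hinton broth, inoculum approximately 5×10^4 CFU/well. Trays incubated at 35 °C for 16-20 hours. MIC read by comparing growth to compound-free growth controls.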

Another assay concerns E. faecalis ATCC29212. Particulars: Enterococcus faecalis, Table 1, 6-Carbamoyl-3-Acyl Macrolide Derivatives, read-out: MIC Values, C: E. faecalis ATCC29212. In outline:
as §1

In the next assay the test system is H. influenzae ATCC49247. To be noted: Haemophilus influenzae, Table 1, 6-Carbamoyl-3-Acyl Macrolide Derivatives, read-out: MIC Values, E: H. influenzae ATCC49247. Put shortly:
as §1

For the next assay, the system named is S. aureus ATCC29213. To be noted: Staphylococcus aureus, Table 1, 6-Carbamoyl-3-Acyl Macrolide Derivatives, read-out: MIC Values, B: S. aureus ATCC29213. Put shortly:
as §1

In a further assay the test system is S. pneumoniae ATCC49619. Particulars: Streptococcus pneumoniae, Table 1, 6-Carbamoyl-3-Acyl Macrolide Derivatives, read-out: MIC Values, D: S. pneumoniae ATCC49619. Put shortly:
as §1

For the compound `CC[C@H]1OC(=O)[C@H](C)[C@@H](OC(=O)Cc2ccccn2)[C@H](C)[C@@H](O[C@@H]2O[C@H](C)C[C@H](N(C)C)[C@H]2O)[C@](C)(OC(=O)NC/C=C/c2cnc3ccccc3c2)C[C@@H](C)C(=O)[C@H](C)[C@H]2NC(=O)O[C@@]21C` [Compound 32], the MIC was 8 µg/mL (≈ 8.6 µM) in the assay with E. coli OC2605; 0.25 µg/mL (≈ 0.269 µM) in the assay with E. faecalis ATCC29212; 2 µg/mL (≈ 2.15 µM) in the assay on H. influenzae ATCC49247; 0.5 µg/mL (≈ 0.538 µM) in the assay with S. aureus ATCC29213; 0.03 µg/mL (≈ 0.0323 µM) in the assay on S. pneumoniae ATCC49619.
As to `CC[C@H]1OC(=O)[C@H](C)[C@@H](OC(=O)c2cccnc2)[C@H](C)[C@@H](O[C@@H]2O[C@H](C)C[C@H](N(C)C)[C@H]2O)[C@](C)(OC(=O)NC/C=C/c2ccc(-c3ncccn3)cc2)C[C@@H](C)C(=O)[C@H](C)[C@H]2NC(=O)O[C@@]21C` [Compound 7], the MIC was greater than 16 µg/mL with E. coli OC2605; 0.5 µg/mL (≈ 0.53 µM) in the assay on E. faecalis ATCC29212; 8 µg/mL (≈ 8.48 µM) with H. influenzae ATCC49247; 1 µg/mL (≈ 1.06 µM) in the assay on S. aureus ATCC29213; 0.06 µg/mL (≈ 0.0636 µM) with S. pneumoniae ATCC49619.
With `CC[C@H]1OC(=O)[C@H](C)[C@@H](OC(=O)Cc2ccccn2)[C@H](C)[C@@H](O[C@@H]2O[C@H](C)C[C@H](N(C)C)[C@H]2O)[C@](C)(OC(=O)NC/C=C/c2cccnc2)C[C@@H](C)C(=O)[C@H](C)[C@H]2NC(=O)O[C@@]21C` [Compound 20], the MIC amounted to 8 µg/mL (≈ 9.09 µM) in the assay on E. coli OC2605; 0.25 µg/mL (≈ 0.284 µM) in the assay with E. faecalis ATCC29212; 1 µg/mL (≈ 1.14 µM) with H. influenzae ATCC49247; 0.5 µg/mL (≈ 0.568 µM) in the assay with S. aureus ATCC29213; 0.03 µg/mL (≈ 0.0341 µM) in the assay on S. pneumoniae ATCC49619.
The like results for `CC[C@H]1OC(=O)[C@H](C)[C@@H](OC(=O)Cc2cccnc2)[C@H](C)[C@@H](O[C@@H]2O[C@H](C)C[C@H](N(C)C)[C@H]2O)[C@](C)(OC(=O)NC/C=C/c2ccccc2)C[C@@H](C)C(=O)[C@H](C)[C@H]2NC(=O)O[C@@]21C` [Compound 21] were, in that order, 8 µg/mL (≈ 9.1 µM), 0.25 µg/mL (≈ 0.284 µM), 2 µg/mL (≈ 2.28 µM), 0.5 µg/mL (≈ 0.569 µM) and 0.06 µg/mL (≈ 0.0683 µM).
The like results for `CC[C@H]1OC(=O)[C@H](C)[C@@H](OC(=O)Cc2cccnc2)[C@H](C)[C@@H](O[C@@H]2O[C@H](C)C[C@H](N(C)C)[C@H]2O)[C@](C)(OC(=O)NC/C=C/C=C/c2ccccn2)C[C@@H](C)C(=O)[C@H](C)[C@H]2NC(=O)O[C@@]21C` [Compound 27] were, in that order, 8 µg/mL (≈ 8.83 µM), 0.25 µg/mL (≈ 0.276 µM), 1 µg/mL (≈ 1.1 µM), 0.5 µg/mL (≈ 0.552 µM) and 0.03 µg/mL (≈ 0.0331 µM).
On the same counts, the results for `CC[C@H]1OC(=O)[C@H](C)[C@@H](OC(C)=O)[C@H](C)[C@@H](O[C@@H]2O[C@H](C)C[C@H](N(C)C)[C@H]2O)[C@](C)(OC(=O)NC/C=C/c2ccc(-c3ncccn3)cc2)C[C@@H](C)C(=O)[C@H](C)[C@H]2NC(=O)O[C@@]21C` [Compound 12] are greater than 16 µg/mL, 0.25 µg/mL (≈ 0.284 µM), 8 µg/mL (≈ 9.09 µM), 1 µg/mL (≈ 1.14 µM) and 0.06 µg/mL (≈ 0.0682 µM).

The record behind these values is patent publication US6825172B2, “3-descladinosyl-6-O-carbamoyl and 6-O-carbonoyl macrolide antibacterial agents” (Janssen Pharmaceutica, NV, priority 2002, dated 2004).
